Test results taken from PubChem BioAssay (NCI).
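Five compound concentrations were applied to cells in 96-well plates for 48 hours; endpoints were derived by simple linear interpolation of the resulting dose-response curve. The concentration for 50% growth inhibition is given as GI50. TGI marks complete inhibition of growth.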

Experiments:
Test in all cases: NCI anticancer screen, dose series, 48 h
[1] = test system: 786-0 renal
[2] = test system: A498 renal
[3] = test system: A549 NSCLC
[4] = test system: ACHN renal
[5] = test system: BT-549 breast
[6] = test system: CAKI-1 renal
[7] = test system: CCRF-CEM leukemia
[8] = test system: COLO 205 colon
[9] = test system: DU-145 prostate
[10] = test system: EKVX NSCLC
[11] = test system: HCC-2998 colon
[12] = test system: HCT-116 colon
[13] = test system: HCT-15 colon
[14] = test system: HL-60(TB) leukemia
[15] = test system: HOP-62 NSCLC
[16] = test system: HOP-92 NSCLC
[17] = test system: HS 578T breast
[18] = test system: HT29 colon
[19] = test system: IGROV1 ovarian
[20] = test system: K-562 leukemia
[21] = test system: KM12 colon
[22] = test system: LOX IMVI melanoma
[23] = test system: M14 melanoma
[24] = test system: MALME-3M melanoma
[25] = test system: MCF7 breast
[26] = test system: MDA-MB-231 breast
[27] = test system: MDA-MB-435
[28] = test system: MDA-MB-468 breast
[29] = test system: MOLT-4 leukemia
[30] = test system: NCI-H226 lung
[31] = test system: NCI-H23 lung
[32] = test system: NCI-H460 lung
[33] = test system: NCI-H522 lung
[34] = test system: OVCAR-3 ovarian
[35] = test system: OVCAR-4 ovarian
[36] = test system: OVCAR-5 ovarian
[37] = test system: OVCAR-8 ovarian
[38] = test system: PC-3 prostate
[39] = test system: RPMI-8226 leukemia
[40] = test system: RXF 393 renal
[41] = test system: SF-268 CNS
[42] = test system: SF-295 CNS
[43] = test system: SF-539 CNS
[44] = test system: SK-MEL-2 melanoma
[45] = test system: SK-MEL-28 melanoma
[46] = test system: SK-MEL-5 melanoma
[47] = test system: SK-OV-3 ovarian
[48] = test system: SN12C renal
[49] = test system: SNB-19 CNS
[50] = test system: SR leukemia
[51] = test system: SW-620 colon
[52] = test system: T-47D breast
[53] = test system: TK-10 renal
[54] = test system: U251 CNS
[55] = test system: UACC-257 melanoma
[56] = test system: UACC-62 melanoma
[57] = test system: UO-31 renal

For `C=CC(=O)N1CCN(c2ccc3nc4c(nc3c2C(F)(F)F)C(=O)c2ncccc2C4=O)CC1`, the GI50 [1] was 9.96 µM, the TGI [1] was 66.6 µM and the GI50 [2] was 15.6 µM. It also gave a TGI [2] of 29.8 µM, a GI50 [3] of 3.05 µM and a TGI [3] of 14.7 µM. It also gave a GI50 [4] of 6.41 µM, a TGI [4] of 20.5 µM and a GI50 [5] of 7.17 µM. The TGI [5] was 20.3 µM, the GI50 [6] was 9.74 µM and the TGI [6] was 38 µM. The GI50 [7] was 2.99 µM, the TGI [7] was over 98 µM and the GI50 [8] was 2.42 µM. It also gave a TGI [8] of 7.83 µM, a GI50 [9] of 6.16 µM and a TGI [9] of 20 µM. For the same compound, the GI50 [10] was 8.45 µM, the TGI [10] was 21.9 µM and the GI50 [11] was 5.44 µM. The TGI [11] was 18.1 µM, the GI50 [12] was 2.67 µM and the TGI [12] was 7.4 µM. For the same compound, the GI50 [13] was 2.39 µM, the TGI [13] was 11.9 µM and the GI50 [14] was 3.34 µM. It also gave a TGI [14] of over 98 µM, a GI50 [15] of 10.9 µM and a TGI [15] of 39.8 µM. It also gave a GI50 [16] of 19 µM, a TGI [16] of 57.1 µM and a GI50 [17] of 16.9 µM. The TGI [17] was 56.4 µM, the GI50 [18] was 3.27 µM and the TGI [18] was 11 µM. For the same compound, the GI50 [19] was 2.9 µM, the TGI [19] was 12.3 µM and the GI50 [20] was 4.4 µM. The TGI [20] was over 98 µM, the GI50 [21] was 4.61 µM and the TGI [21] was 55.3 µM. The GI50 [22] was 2.09 µM, the TGI [22] was 6.37 µM and the GI50 [23] was 2.53 µM. The TGI [23] was 12.3 µM, the GI50 [24] was 1.3 µM and the TGI [24] was 2.67 µM. It also gave a GI50 [25] of 1.77 µM, a TGI [25] of 5.48 µM and a GI50 [26] of 2.95 µM. For the same compound, the TGI [26] was 10.7 µM, the GI50 [27] was 1.68 µM and the TGI [27] was 3.21 µM. The GI50 [28] was 1.58 µM, the TGI [28] was 3.67 µM and the GI50 [29] was 3.28 µM. The TGI [29] was 21.2 µM, the GI50 [30] was 10.9 µM and the TGI [30] was 27.7 µM. The GI50 [31] was 1.97 µM, the TGI [31] was 9.88 µM and the GI50 [32] was 1.25 µM. The TGI [32] was 3.75 µM, the GI50 [33] was 9.95 µM and the TGI [33] was 23.8 µM. For the same compound, the GI50 [34] was 2.24 µM, the TGI [34] was 6.35 µM and the GI50 [35] was 2.41 µM. The TGI [35] was 6.7 µM, the GI50 [36] was 11.8 µM and the TGI [36] was 25.2 µM. For the same compound, the GI50 [37] was 2.99 µM, the TGI [37] was 11.6 µM and the GI50 [38] was 2.52 µM. It also gave a TGI [38] of over 98 µM, a GI50 [39] of 3.1 µM and a TGI [39] of 40.7 µM. The GI50 [40] was 3.59 µM, the TGI [40] was 15.8 µM and the GI50 [41] was 7.76 µM. The TGI [41] was 63.6 µM, the GI50 [42] was 4.1 µM and the TGI [42] was 16.9 µM. The GI50 [43] was 3.39 µM, the TGI [43] was 11.7 µM and the GI50 [44] was 3.01 µM. The TGI [44] was 13.2 µM, the GI50 [45] was 10.8 µM and the TGI [45] was 28.2 µM. It also gave a GI50 [46] of 1.39 µM, a TGI [46] of 2.67 µM and a GI50 [47] of 19.4 µM. The TGI [47] was 79.6 µM, the GI50 [48] was 2.27 µM and the TGI [48] was 8.31 µM. It also gave a GI50 [49] of 5.4 µM, a TGI [49] of 20.1 µM and a GI50 [50] of 3.18 µM. The TGI [50] was over 98 µM, the GI50 [51] was 2.88 µM and the TGI [51] was 11 µM. The GI50 [52] was 2.66 µM, the TGI [52] was 9.9 µM and the GI50 [53] was 18.6 µM. For the same compound, the TGI [53] was 97.6 µM, the GI50 [54] was 3.11 µM and the TGI [54] was 13.3 µM. The GI50 [55] was 1.72 µM, the TGI [55] was 4.16 µM and the GI50 [56] was 2.05 µM. The TGI [56] was 5.31 µM, the GI50 [57] was 11 µM and the TGI [57] was 25.7 µM.
